Experimental data taken from ChEMBL document CHEMBL1146919, “Triazolo-tetrahydrofluorenones as selective estrogen receptor beta agonists” (Bioorg Med Chem Lett, 2006).

Key:
Estrogen receptor [1] = target: T1, Estrogen receptor (Homo sapiens, UniProt P03372)
T1 sequence (P03372 whole entry): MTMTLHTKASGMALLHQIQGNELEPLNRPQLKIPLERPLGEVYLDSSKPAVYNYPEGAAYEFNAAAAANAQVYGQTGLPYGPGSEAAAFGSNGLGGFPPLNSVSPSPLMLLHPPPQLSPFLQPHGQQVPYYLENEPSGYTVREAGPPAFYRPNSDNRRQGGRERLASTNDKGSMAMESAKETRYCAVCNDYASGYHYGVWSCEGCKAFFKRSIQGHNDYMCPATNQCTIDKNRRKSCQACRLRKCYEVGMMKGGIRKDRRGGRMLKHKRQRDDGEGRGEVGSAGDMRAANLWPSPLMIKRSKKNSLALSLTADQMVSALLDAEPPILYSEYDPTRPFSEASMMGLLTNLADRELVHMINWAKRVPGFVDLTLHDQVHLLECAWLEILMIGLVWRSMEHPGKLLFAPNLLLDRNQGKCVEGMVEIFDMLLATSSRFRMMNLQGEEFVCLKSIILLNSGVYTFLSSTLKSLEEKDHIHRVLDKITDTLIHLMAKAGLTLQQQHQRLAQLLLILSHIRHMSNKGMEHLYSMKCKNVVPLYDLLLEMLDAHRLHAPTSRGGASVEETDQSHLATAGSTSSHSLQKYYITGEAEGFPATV
Description: Binding affinity to human recombinant ERalpha by scintillation proximity assay

Estrogen receptor beta [2] = target: T2, Estrogen receptor beta (Homo sapiens, UniProt Q92731)
Description: Binding affinity to human recombinant ERbeta by scintillation proximity assay

Estrogen receptor [3] = target: T1, Estrogen receptor; remark: listed apart in the source
Description: Agonist activity at human recombinant ERalpha expressed in HEK293 cells by alkaline phosphatase reporter gene transactivation assay

Estrogen receptor beta [4] = target: T2, Estrogen receptor beta; remark: listed apart in the source
Description: Agonist activity at human recombinant ERbeta expressed in HEK293 cells by alkaline phosphatase reporter gene transactivation assay

[5] = Half life in Sprague-Dawley rat at 1 mg/kg, iv and 2 mg/kg, po; type: ADME, organism-based; conditions: in vivo
[6] = Bioavailability in Sprague-Dawley rat at 1 mg/kg, iv and 2 mg/kg, po; type: ADME, organism-based; conditions: in vivo
[7] = Plasma clearance in Sprague-Dawley rat at 1 mg/kg, iv and 2 mg/kg, po; type: ADME, organism-based
[8] = AUC in Sprague-Dawley rat at 1 mg/kg, iv; type: ADME, organism-based; parameters: dose 1 mg/kg, route intravenous; conditions: plasma

T2 sequence (Q92731 whole entry): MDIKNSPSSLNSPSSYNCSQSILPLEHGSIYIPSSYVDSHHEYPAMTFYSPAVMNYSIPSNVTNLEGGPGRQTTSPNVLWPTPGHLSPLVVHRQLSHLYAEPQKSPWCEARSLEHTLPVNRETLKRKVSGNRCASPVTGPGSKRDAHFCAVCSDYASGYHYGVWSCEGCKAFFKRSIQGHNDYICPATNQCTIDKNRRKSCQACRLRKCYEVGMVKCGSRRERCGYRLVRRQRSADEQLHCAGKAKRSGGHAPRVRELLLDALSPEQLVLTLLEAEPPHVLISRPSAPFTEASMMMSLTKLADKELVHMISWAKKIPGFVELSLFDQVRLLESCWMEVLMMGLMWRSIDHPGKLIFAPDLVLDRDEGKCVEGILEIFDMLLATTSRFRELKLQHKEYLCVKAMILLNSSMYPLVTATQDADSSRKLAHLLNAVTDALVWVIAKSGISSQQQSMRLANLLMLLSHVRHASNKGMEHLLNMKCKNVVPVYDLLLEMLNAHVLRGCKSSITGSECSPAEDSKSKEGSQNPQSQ

| Compound | IC50 (Estrogen receptor [1]) [nM] | IC50 (Estrogen receptor beta [2]) [nM] | EC50 (Estrogen receptor [3]) [nM] | EC50 (Estrogen receptor beta [4]) [nM] | half-life [5] [h] | bioavailability [6] [%] | clearance [7] [mL/min/kg] | AUC [8] [µM·h] |
| --- | --- | --- | --- | --- | --- | --- | --- | --- |
| CCC1=C2c3ccc4[nH]nnc4c3C[C@@]2(CC)CCC1=O | > 10000 | 1520 |  |  |  |  |  |  |
| CCCC[C@]12CCC(=O)C(CC)=C1c1ccc3[nH]nnc3c1C2 | 4750 | 242 | 391 | 28 | 1.2 | 99 | 18.3 | 3 |
| CCCC12CCC(=O)C(Br)=C1c1ccc3nn[nH]c3c1C2 (stereo not given) | 3300 | 43 | 561 | 18 |  |  |  |  |
| CCC1=C2c3ccc4[nH]nnc4c3CC2(CC)CCC1=O (stereo not given) | 1320 | 18 | 460 | 7.3 |  |  |  |  |
| CCCCC1=C2c3ccc4[nH]nnc4c3CC2(CC)CCC1=O (stereo not given) | 1130 | 43 | 681 | 60 |  |  |  |  |
| CCCC[C@@]12CCC(=O)C(CC)=C1c1ccc3nn[nH]c3c1C2 | 220 | 5.1 | 30 | 0.4 | 0.4 | 28 | 62 | 0.9 |
| CCCC[C@@]12CCC(=O)C(Br)=C1c1ccc3[nH]nnc3c1C2 | 1910 | 5.7 | 519 | 5.5 | 2.9 | 36 | 24.4 | 1.9 |
| CCC12CCC(=O)C=C1c1ccc3nn[nH]c3c1C2 (stereo not given) | > 10000 | 3040 | 1230 | 475 |  |  |  |  |
| CCC12CCC(=O)C(c3ccc(O)cc3)=C1c1ccc3[nH]nnc3c1C2 (stereo not given) | 81 | 11 | 901 | 4.3 |  |  |  |  |
| CCCC[C@@]12CCC(=O)C(c3cccs3)=C1c1ccc3nn[nH]c3c1C2 | 34 | 2.3 | 79 | 0.96 |  |  |  |  |
| CCCCC12CCC(=O)C(c3ccco3)=C1c1ccc3[nH]nnc3c1C2 (stereo not given) | 1120 | 7.4 | 870 | 6.5 |  |  |  |  |
| CCCC[C@@]12CCC(=O)C(C(F)(F)F)=C1c1ccc3[nH]nnc3c1C2 | 896 | 3.2 | 169 | 2.3 |  |  |  |  |
| CCC12CCC(=O)C(C)=C1c1ccc3[nH]nnc3c1C2 (stereo not given) | 1900 | 24 | 671 | 20 |  |  |  |  |
| CCCC1=C2c3ccc4[nH]nnc4c3CC2(CCC)CCC1=O (stereo not given) | 344 | 23 |  |  |  |  |  |  |
| CCC12CCC(=O)C(Br)=C1c1ccc3nn[nH]c3c1C2 (stereo not given) | 5170 | 60 | 1270 | 46 |  |  |  |  |

Continued, values first:

| IC50 (Estrogen receptor [1]) [nM] | IC50 (Estrogen receptor beta [2]) [nM] | EC50 (Estrogen receptor [3]) [nM] | EC50 (Estrogen receptor beta [4]) [nM] | half-life [5] [h] | bioavailability [6] [%] | clearance [7] [mL/min/kg] | AUC [8] [µM·h] | Compound |
| --- | --- | --- | --- | --- | --- | --- | --- | --- |
| 1250 | 58 | 1180 | 96 |  |  |  |  | CCCCC12CCC(=O)C(CCC)=C1c1ccc3[nH]nnc3c1C2 (stereo not given) |
| 612 | 18 | 120 | 7.7 |  |  |  |  | CCCC12CCC(=O)C(CC)=C1c1ccc3[nH]nnc3c1C2 (stereo not given) |
| 352 | 11 | 794 | 14 |  |  |  |  | CCCC1=C2c3ccc4nn[nH]c4c3CC2(CC)CCC1=O (stereo not given) |
| 5980 | 27 |  | 20 |  |  |  |  | CCCCC12CCC(=O)C(C)=C1c1ccc3[nH]nnc3c1C2 (stereo not given) |
| 1680 | 11 | 241 | 4.9 | 0.4 | 59 | 108 | 0.6 | CC[C@@]12CCC(=O)C(C(F)(F)F)=C1c1ccc3nn[nH]c3c1C2 |
|  |  |  |  | 2.9 | 85 | 31.6 | 1.7 | CCCCC12CCC(=O)C(CC)=C1c1ccc3[nH]nnc3c1C2 (racemic) |
| 6170 | 81 | 449 | 17 |  |  |  |  | CCCC12CCC(=O)C(C)=C1c1ccc3nn[nH]c3c1C2 (stereo not given) |
| 141 | 1.8 | 94 | 4 | 1.5 | 0 | 102 | 0.5 | CCCCC12CCC(=O)C(Br)=C1c1ccc3nn[nH]c3c1C2 (racemic) |
| 647 | 5.7 | 140 | 5.8 | 0.3 | 70 | 64.8 | 1 | CCC1=C2c3ccc4[nH]nnc4c3C[C@]2(CC)CCC1=O |
